According to article PMC5851678, “Phosphorylation decelerates conformational dynamics in bacterial translation elongation factors” (Science Advances, 2018):
Read-outs that look alike come from different tables or passages of the source.

Key:
Test in all cases: ITC
pEF-TuT382 [1] = molecular target: T1, pEF-TuT382; parameters: species or system Escherichia coli; settings: 50 mM Hepes pH 7.4, 40 mM NH4Cl, 2 mM MgCl2, 1 mM TCEP; phosphorylated at T382
T1 construct: gene tufA; full-length His-tagged EF-Tu phosphorylated at T382 in vitro by toxin Doc with ATP, repurified by SEC

EF-Tu [2] = molecular target: T2, EF-Tu; parameters: species or system Escherichia coli; settings: 50 mM Hepes pH 7.4, 40 mM NH4Cl, 2 mM MgCl2, 1 mM TCEP
T2 construct: gene tufA; full-length, His-tagged (pET-His-EF-Tu), expressed in E. coli BL21(DE3), nucleotide-free, unphosphorylated
Text: ITC on EF-Tu | consistent with the affinities measured with GDPNP

pEF-TuT382 [3] = molecular target: T1, pEF-TuT382; assay type: binding, Escherichia coli; settings: 50 mM Hepes pH 7.4, 40 mM NH4Cl, 2 mM MgCl2, 1 mM TCEP, nucleotide-free protein, phosphorylated at T382
EF-Tu [4] = molecular target: T2, EF-Tu; assay type: binding, Escherichia coli; settings: 20 °C, 50 mM Hepes pH 7.4, 40 mM NH4Cl, 2 mM MgCl2, 1 mM TCEP, nucleotide-free protein; read-out: affinity

| Kd (pEF-TuT382 [1]) [nM] | Kd (EF-Tu [2]) [nM] | Kd (pEF-TuT382 [3]; read-out: affinity) [nM] | Kd (EF-Tu [4]) [nM] | Kd (pEF-TuT382 [3]; read-out: Kd) [nM] | Structure (SMILES) |
| --- | --- | --- | --- | --- | --- |
| 320 ± 1 | 128 ± 8 | – | – | – | Nc1nc2c(ncn2[C@@H]2O[C@H](COP(=O)(O)OP(=O)(O)NP(=O)(O)O)[C@@H](O)[C@H]2O)c(=O)[nH]1 [GDPNP, 5′-guanylyl imidodiphosphate] |
| – | – | 5.7 | 4.5 | – | Nc1nc2c(ncn2[C@@H]2O[C@H](COP(=O)(O)OP(=O)(O)O)[C@@H](O)[C@H]2O)c(=O)[nH]1 [GDP] |
| – | – | – | 81 | 90 | Nc1nc2c(ncn2[C@@H]2O[C@H](COP(=O)(O)OP(=O)(O)OP(O)(O)=S)[C@@H](O)[C@H]2O)c(=O)[nH]1 [GTPγS, guanosine-5′-(γ-thio)-triphosphate] |
